Earlier results as cited in patent publication US20200022949A1, “COMPOSITION AND METHOD FOR THE ALLEVIATION OF EFFECTS OF ALCOHOL CONSUMPTION” (Detoxicated Inc., priority 2018, published 2020).

Tested on: non-alcoholic fatty liver disease
Details: patients with non-alcoholic fatty liver disease

O=C1c2c(O)cc(O)cc2O[C@H](c2cc(O)c(O)c(O)c2)[C@H]1O [DHM, dihydromyricetin]
liver health (levels of liver enzymes and inflammatory cytokines): improve liver health
